# Reference: ChEMBL document CHEMBL1121662 (1981)
# Experiments:
# Format in all cases: functional
# Mus musculus [1] = organism: Mus musculus; test: Compound was evaluated for low level mutagenicity
# Mus musculus [2] = organism: Mus musculus; test: Compound was evaluated for mutagenicity after threshold range
# Mus musculus [3] = organism: Mus musculus; test: Compound was evaluated for Carcinogenicity based on concentration necessary to produce one tumor per mouse (Strain A)
# Mus musculus [4] = organism: Mus musculus; test: Compound was evaluated for Carcinogenicity to produce 0.5 tumors per mouse (B.5)
Structure (SMILES),Log 1/B+100 (Mus musculus [1]),Log 1/Th+200 (Mus musculus [2]),Log 1/B+1 (Mus musculus [3]),Log 1/B.5 (Mus musculus [4])
ClCCN(CCCl)c1ccc(/C=C/c2ccccc2)cc1,1.99,2.04,,
NC(=O)Nc1cc(NC(N)=O)cc(N(CCCl)CCCl)c1,0.31,-0.01,4.26,5.43
